Mutagenic call data for 4 molecules are collected here from PubChem BioAssay AID1259407 (Chemical Carcinogenesis Research Information System (CCRIS), 2018).

The source made the active and inactive calls. How the calls were made is not given here.

This data set deals with CCRIS mutagenicity, Ames/micronucleus/aberration tests. In words: CCRIS mutagenicity studies. The settings on record: Test System: AMES SALMONELLA TYPHIMURIUM
Setting [1] is: Strain/Indicator: TA98, Metabolic Activation: HAMSTER, LIVER, S-9, AROCLOR 1254 (10%), Method: PREINCUBATION
Setting [2] is: Strain/Indicator: TA98, Metabolic Activation: NONE, Method: PREINCUBATION
[3] abbreviates: Strain/Indicator: TA98, Metabolic Activation: RAT, LIVER, S-9, AROCLOR 1254 (10%), Method: PREINCUBATION
Setting [4] is: Strain/Indicator: TA100, Metabolic Activation: HAMSTER, LIVER, S-9, AROCLOR 1254 (10%), Method: PREINCUBATION
The mark [5] stands for this setting: Strain/Indicator: TA100, Metabolic Activation: NONE, Method: PREINCUBATION
The mark [6] stands for this setting: Strain/Indicator: TA100, Metabolic Activation: RAT, LIVER, S-9, AROCLOR 1254 (10%), Method: PREINCUBATION
The mark [7] stands for this setting: Strain/Indicator: TA1535, Metabolic Activation: HAMSTER, LIVER, S-9, AROCLOR 1254 (10%), Method: PREINCUBATION
[8] abbreviates: Strain/Indicator: TA1535, Metabolic Activation: NONE, Method: PREINCUBATION
The mark [9] stands for this setting: Strain/Indicator: TA1535, Metabolic Activation: RAT, LIVER, S-9, AROCLOR 1254 (10%), Method: PREINCUBATION
The mark [10] stands for this setting: Strain/Indicator: TA1537, Metabolic Activation: HAMSTER, LIVER, S-9, AROCLOR 1254 (10%), Method: PREINCUBATION
Setting [11] is: Strain/Indicator: TA1537, Metabolic Activation: NONE, Method: PREINCUBATION
Where [12] appears, read: Strain/Indicator: TA1537, Metabolic Activation: RAT, LIVER, S-9, AROCLOR 1254 (10%), Method: PREINCUBATION

With `N#C/C(=C/C=C/c1ccccc1[N+](=O)[O-])c1ccc(Br)cc1`, the mutagenic call was “active; positive” (Strain/Indicator: TA97A, Metabolic Activation: NONE, Method: STANDARD PLATE) and “active; positive” (Strain/Indicator: TA100, Metabolic Activation: NONE, Method: STANDARD PLATE).

As to `NC1CCC(CC2CCC(N)CC2)CC1` (stereo not drawn), the mutagenic call by setting is: under setting [1], “inactive; negative”; under setting [2], “inactive; negative”; under setting [3], “inactive; negative”; under setting [4], “inactive; negative”; under setting [5], “inactive; negative”; under setting [6], “inactive; negative”. Moreover, the mutagenic call by setting is: under setting [7], “inactive; negative”; under setting [8], “inactive; negative”; under setting [9], “inactive; negative”; under setting [10], “inactive; negative”; under setting [11], “inactive; negative”; under setting [12], “inactive; negative”.

Consider `N[C@@H](CCC(=O)NC(CSC(Cl)=C(Cl)Cl)C(=O)NCC(=O)O)C(=O)O` (stereo partly drawn), for which the mutagenic call under setting [5] is “inactive; negative” and the mutagenic call (Strain/Indicator: TA100, Metabolic Activation: RAT, KIDNEY, MICROSOMES, Method: PREINCUBATION) was “active; positive”.

Consider `COc1cc2c(cc1OC)[C@@]13CCN4CC5=CCO[C@H]6CC(=O)N2[C@H]1[C@H]6[C@H]5C[C@H]43`, for which the mutagenic call runs as follows: under setting [1], “inactive; negative”; under setting [2], “inactive; negative”; under setting [3], “inactive; negative”; under setting [4], “inactive; negative”; under setting [5], “inactive; negative”; under setting [6], “inactive; negative”. In addition, the mutagenic call under setting [7] was “inactive; negative”; the mutagenic call under setting [8] is “inactive; negative”; the mutagenic call under setting [9] was “inactive; negative”; the mutagenic call under setting [10] is “inactive; negative”; the mutagenic call under setting [11] is “inactive; negative”; the mutagenic call under setting [12] is “inactive; negative”.
